# In PubChem BioAssay (NCI):
# “And” between values parts separate entries of the source, which are not always exact repeats. Equal values may be shown once.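 Each compound was tested at five concentrations against cells in 96-well plates for 48 hours. At the GI50, growth is halved. TGI denotes the concentration required for complete inhibition of growth.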
# Assays:
# Test in all cases: NCI anticancer screen, dose series, 48 h
# SN12C renal = test system: SN12C renal
# NCI-H460 lung = test system: NCI-H460 lung
# K-562 leukemia = test system: K-562 leukemia
# OVCAR-4 ovarian = test system: OVCAR-4 ovarian
# HT29 colon = test system: HT29 colon
# M14 melanoma = test system: M14 melanoma
# HL-60(TB) leukemia = test system: HL-60(TB) leukemia
# SF-268 CNS = test system: SF-268 CNS
SMILES,GI50 (SN12C renal),TGI (SN12C renal),GI50 (NCI-H460 lung),TGI (NCI-H460 lung),GI50 (K-562 leukemia),TGI (K-562 leukemia),GI50 (OVCAR-4 ovarian),TGI (OVCAR-4 ovarian),GI50 (HT29 colon),TGI (HT29 colon),GI50 (M14 melanoma),TGI (M14 melanoma),GI50 (HL-60(TB) leukemia),TGI (HL-60(TB) leukemia),GI50 (SF-268 CNS),TGI (SF-268 CNS)
O=C1NC(=NCCc2ccc(Br)cc2)S/C1=C\c1ccc2ncccc2c1,> 25 µM,> 25 µM,> 25 µM,> 25 µM,24.6 µM,> 25 µM,10.5 µM,> 25 µM,> 25 µM,> 25 µM,> 25 µM,> 25 µM,> 25 µM,> 25 µM,15.9 µM,> 25 µM
N#Cc1c(N)nc(N2CCOCC2)c(C#N)c1-c1c(Cl)cccc1Cl,6.17 µM,33.2 µM,6.39 µM,44.6 µM,3.3 µM,11.7 µM,13.1 µM,> 100 µM,3.33 µM,17.4 µM,2.47 µM,7.42 µM,4.75 µM,20.9 µM,11.3 µM,> 100 µM
C(=N\Nc1ccc2ccccc2n1)/c1ccccn1,0.483 µM,> 100 µM,0.366 µM,,0.487 µM,> 39.1 µM,0.363 µM,> 100 µM,0.536 µM,> 40.6 µM,0.565 µM,3.45 µM,0.279 µM,2.3 µM,0.41 µM,> 33.5 µM
CCc1c(C)c2cc(-n3c(-c4ccc(OC)cc4)csc3=N)c(O)c(C)c2oc1=O,1.82 µM,4.89 µM,2.25 µM,10.6 µM,,,1.52 µM,4.43 µM,1.74 µM,6.12 µM,1.41 µM,6.59 µM,,,2.1 µM,10.3 µM
CN1CCN(c2ccc(NC3=CC(=O)c4ncncc4C3=O)cc2)CC1,0.326 µM,0.969 µM,0.354 µM,1.22 µM,,,0.147 µM,0.28 µM,1.72 µM,5.98 µM,0.276 µM,0.744 µM,0.249 µM,0.635 µM,1.77 µM,5.73 µM
COc1ccc(-c2c(-c3ccc(C#N)c(F)c3)nc(N3CCC(N)CC3)n(C)c2=O)cc1F,19.3 µM,79.3 µM,19.1 µM,37.1 µM,11.6 µM,28.5 µM,29.3 µM,> 100 µM,10.4 µM,30.2 µM,17.5 µM,34.9 µM,10.8 µM,29.1 µM,20.4 µM,87 µM
Oc1[nH]c2ccccc2c1C=Nc1ccc(-n2cncn2)cc1,14.6 µM,> 25 µM,> 23 µM,> 25 µM,13.6 µM,> 25 µM,> 18.9 µM,> 25 µM,> 23.1 µM,> 25 µM,> 25 µM,> 25 µM,12.9 µM,> 25 µM,> 24.1 µM,> 25 µM
CC12O[C@H](C[C@@H](OC(=O)CCC(=O)O)[C@H]1O)n1c3ccccc3c3c4c(c5c6ccccc6n2c5c31)C(=O)NC4=O,2.47 µM,24.5 µM,1.46 µM,12.2 µM,5.07 µM,> 50 µM,5.77 µM,> 50 µM,1.45 µM,17.7 µM,0.239 µM,6.54 µM,9.62 µM,42.4 µM,3.21 µM,23.9 µM
C[C@]12CCC(=O)C[C@@H]1CC[C@@H]1[C@@H]2CC[C@]2(C)[C@@H](OC(=O)N(CCCl)N=O)CC[C@@H]12,0.734 µM,17.9 µM,0.06 µM,2.99 µM,2.69 µM,> 43.4 µM,11.5 µM,29.7 µM,2.75 µM,> 39 µM,0.752 µM,22.3 µM,0.259 µM,> 33 µM,0.0983 µM,8.85 µM
COc1ccc2c(c1)C(=O)c1c-2n(CCCN(C)C)c(=O)c2cc([N+](=O)[O-])ccc12,< 0.01 µM,10.7 µM,< 0.01 µM,0.234 µM,< 0.01 µM,2.29 µM,0.0515 µM,9.37 µM,< 0.01 µM,0.61 µM,< 0.01 µM,0.0428 µM,< 0.01 µM,0.245 µM,< 0.01 µM,2.29 µM
COc1ccc2c(c1)nnc1c3cccnc3[nH]c21,1.63 µM and 1.68 µM,7.77 µM and 10.7 µM,1.93 µM and 1.28 µM,9.03 µM and 3.79 µM,0.221 µM and 1.06 µM,,1.41 µM and 2.58 µM,16.2 µM and > 100 µM,0.751 µM and 0.541 µM,,1.07 µM and 3.26 µM,,0.158 µM and 0.243 µM,,0.733 µM and 0.365 µM,4.7 µM and 5.65 µM
COc1ccc(-c2[nH]ncc2Nc2cc(OC)c(OC)c(OC)c2)cc1,7.18 µM,> 100 µM,2.68 µM,> 63.6 µM,0.42 µM,> 52.3 µM,5.01 µM,> 100 µM,0.482 µM,> 100 µM,0.906 µM,> 100 µM,0.304 µM,1.57 µM,6.83 µM,> 100 µM
S=C(SSC(=S)N1CCCCC1)N1CCCCC1,17.2 µM,50.4 µM,10.9 µM,41.5 µM,22.5 µM,> 100 µM,9.65 µM,48.9 µM,14.3 µM,29 µM,8.34 µM,22.9 µM,12.4 µM,51.3 µM,17.4 µM,41.6 µM
N#CC1=C(N)OC2=C(CCOc3c2ccc2ccccc32)C1c1ccc(Br)cc1 (stereo not drawn),21.6 µM,47 µM,28.4 µM,> 100 µM,16.5 µM,54.3 µM,27.1 µM,> 100 µM,36.7 µM,> 100 µM,26.9 µM,> 100 µM,17 µM,37.6 µM,27.8 µM,> 100 µM
COc1cnccc1Nc1nc(-c2nn(Cc3c(F)cc(OCCO)cc3F)c3ccccc23)ncc1OC,1.53 µM,11.1 µM,2.06 µM,10.6 µM,0.645 µM,> 100 µM,1.74 µM,3.68 µM,2.87 µM,16.4 µM,1.79 µM,10 µM,1.42 µM,> 100 µM,3.85 µM,15.9 µM
COc1ccc2nc3ccccc3c(NCCNCC(C)O)c2c1 (stereo not drawn),0.253 µM,2.22 µM,0.276 µM,10.4 µM,0.33 µM,,0.463 µM,4.45 µM,0.323 µM,1.9 µM,0.356 µM,1.79 µM,0.492 µM,4.26 µM,0.583 µM,11.1 µM
CCCCCCCCN=C(NCCCCCCCC)SCc1cccc2ccccc12,1.27 µM,2.63 µM,1.69 µM,3.38 µM,0.975 µM,3.26 µM,1.32 µM,2.64 µM,0.839 µM,2.16 µM,1.44 µM,2.86 µM,1.23 µM,3.01 µM,1.83 µM,3.37 µM

SMILES,GI50 (SN12C renal),TGI (SN12C renal),GI50 (NCI-H460 lung),TGI (NCI-H460 lung),GI50 (K-562 leukemia),TGI (K-562 leukemia),GI50 (OVCAR-4 ovarian),TGI (OVCAR-4 ovarian),GI50 (HT29 colon),TGI (HT29 colon),GI50 (M14 melanoma),TGI (M14 melanoma),GI50 (HL-60(TB) leukemia),TGI (HL-60(TB) leukemia),GI50 (SF-268 CNS),TGI (SF-268 CNS)
Cc1ccc(-c2nc3sc(C)cn3c2/C=C2\C(=O)Nc3ccc(Cl)cc32)cc1,15 µM,29.8 µM,15.7 µM,31.9 µM,22.8 µM,84.1 µM,14.5 µM,29.9 µM,20.3 µM,41.4 µM,15.5 µM,29.9 µM,32.3 µM,> 100 µM,17.8 µM,35.5 µM
CC1=C[C@@H]2c3c(c(O)c(O)c4oc5cc(O)cc(O)c5c(=O)c34)[C@@H](c3cc(O)c(O)c4oc5cc(O)cc(O)c5c(=O)c34)[C@@H]2C(C)(C)C1,3.91 µM,23 µM,1.1 µM,8.31 µM,2.34 µM,80 µM,3.26 µM,14.7 µM,3.86 µM,14.8 µM,2.37 µM,12.8 µM,4.87 µM,27.4 µM,3.25 µM,16.1 µM
O=C(NCCNCCO)c1ccc(Nc2nc3ccccc3c3occc23)cc1,11.9 µM,24.6 µM,28.5 µM,> 100 µM,3.37 µM,6.71 µM,24 µM,> 100 µM,29.3 µM,> 100 µM,14.9 µM,30.4 µM,,,> 100 µM,> 100 µM
CCOCCOCCOCCOCCOCCOCCOCCOCCOCCO (tested in a mixture with another compound),,,1.2 µM,6.82 µM,,,0.717 µM,2.84 µM,1.16 µM,4.36 µM,2.02 µM,7.08 µM,0.649 µM,1.59 µM,1.61 µM,20.8 µM
CSc1ccc(C(=O)/C=C/c2ccc(Cl)cc2Cl)cc1,42.9 µM,> 100 µM,26.3 µM,96.4 µM,6.48 µM,49.5 µM,21.8 µM,77.2 µM,,,21.6 µM,59.6 µM,18.4 µM,38.2 µM,20.8 µM,48.9 µM
O=C1/C(=C/c2ccc(C(F)(F)F)cc2)COc2ccc(O)c(O)c21,1.15 µM,2.5 µM,1.85 µM,3.9 µM,0.289 µM,> 100 µM,1.39 µM,2.72 µM,,,1.78 µM,4.04 µM,0.52 µM,3.06 µM,1.67 µM,3.83 µM
O=C1C(Cl)=C(NCCCN(CCCNC2=C(Cl)C(=O)c3ccccc3C2=O)C2=C(Cl)C(=O)c3ccccc3C2=O)C(=O)c2ccccc21,1.51 µM,3.51 µM,3.02 µM,> 100 µM,,,1.49 µM,2.85 µM,,,,,,,2.76 µM,18.8 µM
O=C(C(=CN1CCN(C(=O)c2ccco2)C1=S)C(=O)c1ccccc1)c1ccccc1,6.07 µM,14.4 µM,2.35 µM,11.6 µM,3.24 µM,> 50 µM,16.1 µM,42.8 µM,16.9 µM,> 50 µM,7 µM,13.8 µM,9.89 µM,34.9 µM,,
CCC(c1ccccc1)c1cc(C(C)(C)C)cc(C(C)(C)C)c1O (stereo not drawn),,31.3 µM,,31.3 µM,,34 µM,,29.3 µM,,28 µM,,33.9 µM,,,,28.9 µM
Clc1ccc(-c2nc(NCc3ccco3)c3ccccc3n2)c(Cl)c1,16.1 µM,44.9 µM,32.9 µM,> 100 µM,8.7 µM,60.4 µM,43.3 µM,> 100 µM,,,17.4 µM,36.1 µM,,,32.3 µM,75.3 µM
COc1cc(-c2ccc[nH]2)[nH]c1/C=C1\N=C(C)C(CC(=O)OCC(C)(C)C)=C1C,,,0.137 µM,1.35 µM,0.34 µM,1.37 µM,0.331 µM,2.06 µM,0.172 µM,1.17 µM,0.212 µM,0.658 µM,0.239 µM,0.801 µM,0.288 µM,1.84 µM
O=C(Oc1c(Cl)cc(Cl)cc1Cl)c1ccccc1Nc1ccnc(C(F)(F)F)c1,3.07 µM,14.5 µM,3.38 µM,> 100 µM,2.42 µM,> 100 µM,,,4.59 µM,> 100 µM,2.13 µM,4.99 µM,3.97 µM,> 100 µM,3.92 µM,> 100 µM
COc1ccc2nc3ccccc3c(NCCCCN(CCCl)CCCl)c2c1,,3.13 µM,,0.69 µM,,,,0.542 µM,,> 100 µM,,,,,,2.36 µM
Cc1cc(N(CCNc2ccnc3cc(Cl)ccc23)Cc2ccc3c(c2)OCO3)nc(N2CCCC2)n1,1.5 µM,3.87 µM,,,0.7 µM,3.2 µM,1.39 µM,3.24 µM,0.706 µM,3.66 µM,1.83 µM,3.71 µM,1.95 µM,4.06 µM,2.2 µM,7.16 µM
Cc1c(-c2ccccn2)ccc2ccccc12,,> 100 µM,,> 100 µM,,> 100 µM,,,,> 100 µM,,> 100 µM,,> 100 µM,,> 100 µM
CSc1nc(SC)c2c(C)cn(COCCOC(=O)c3ccccc3)c2n1,,> 100 µM,,> 100 µM,,,,> 100 µM,,> 100 µM,,> 100 µM,,> 100 µM,,> 100 µM
